Assay results reported in PMC1950704 (Respiratory Research, 2007).
Entries after “also recorded” stand apart in the source; their conditions may differ. Where two headings read alike, the source gives them in different places.

Legend:
[1] = Stability in fresh human lung tissue in vitro, with and without esterase inhibitor dichlorvos; assay type: in vitro ADME; conditions: 37°C
Description: Incubations were performed in the presence and absence of dichlorvos (1 mg/mL). Over 24 hours, samples of 1.0 mL tissue-free supernatant were taken and immediately stored at -20°C until analysis. The incubation medium was replenished by buffer which was pre-temperated to 37°C. In case of incubations with dichlorvos the medium used for replenishment contained the esterase inhibitor.
(§1) Samples of 1.0 mL (tissue desorption/stability) or 2.0 mL (tissue adsorption) were mixed with 0.1 mL internal standard solution and extracted twice with 3 mL diethylether for 30 min, using a roller mixer, followed by centrifugation (20°C) for 5 min. The organic phase was separated and evaporated to dryness under a gentle stream of nitrogen at 25°C. The resulting residue was reconstituted in 0.2 mL mobile phase. […] Linearity was given from 10–500 ng/mL glucocorticoid, coefficients of correlation of the calibration curves were at least 0.99.
The HPLC system was a Waters HPLC (Milford, MA) consisting of a 1525 binary pump, an 717plus autosampler and 2487 dual wavelength absorbance detector set at the detection wavelength of 254 nm. Data collection and integration were accomplished using Breeze™ software version 3.2. Analysis was performed on a Symmetry C18 column (150 × 4.6 mm I.D., 5 μm particle size, Waters, MA). […] The lower limit of quantitation was 10 ng/mL for all glucocorticoids except ciclesonide (20 ng/mL).

[2] = biological target: T1, human lung glucocorticoid receptor (Homo sapiens, UniProt P04150); assay: Kinetic receptor binding experiments (association and dissociation kinetics) in human lung cytosol; design: we isolated human lung glucocorticoid receptors from human lung tissue; from tissue; host or cells: human lung tissue cytosol (105,000 x g supernatant); conditions: 20°C, mean and mean deviation of the mean, 3-7 experiments
T1 sequence (P04150 1-777): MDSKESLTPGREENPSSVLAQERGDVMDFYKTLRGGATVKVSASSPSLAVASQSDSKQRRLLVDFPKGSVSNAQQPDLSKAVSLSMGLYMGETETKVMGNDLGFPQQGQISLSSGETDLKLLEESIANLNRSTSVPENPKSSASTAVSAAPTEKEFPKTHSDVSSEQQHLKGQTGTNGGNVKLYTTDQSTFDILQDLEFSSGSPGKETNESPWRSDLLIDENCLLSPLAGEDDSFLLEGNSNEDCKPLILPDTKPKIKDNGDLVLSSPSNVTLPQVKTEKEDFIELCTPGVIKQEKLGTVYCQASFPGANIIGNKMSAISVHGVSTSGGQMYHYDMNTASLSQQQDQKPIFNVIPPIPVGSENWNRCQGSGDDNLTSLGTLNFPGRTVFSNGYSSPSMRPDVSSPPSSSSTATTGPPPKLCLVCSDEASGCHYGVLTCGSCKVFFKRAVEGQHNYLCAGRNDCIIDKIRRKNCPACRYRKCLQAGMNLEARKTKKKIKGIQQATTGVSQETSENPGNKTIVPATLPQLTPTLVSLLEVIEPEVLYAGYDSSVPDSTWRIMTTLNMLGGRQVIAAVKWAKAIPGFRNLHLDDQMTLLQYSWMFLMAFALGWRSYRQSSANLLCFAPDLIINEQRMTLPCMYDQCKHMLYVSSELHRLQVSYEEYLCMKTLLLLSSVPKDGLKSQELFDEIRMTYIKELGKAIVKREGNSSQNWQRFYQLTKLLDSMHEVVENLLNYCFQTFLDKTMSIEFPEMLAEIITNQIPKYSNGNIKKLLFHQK
Description: Human lung tissue was deep frozen immediately after resection and stored in liquid nitrogen. Frozen tissue was pulverized and homogenized in three aliquots buffer solution A with an Ultra Turrax mixer (Janke and Kunkel, Staufen, Germany) in an ice bath. […] The cytosol was stored in aliquots at -70°C.
The receptor binding experiments were performed according to the procedure described earlier [1] based on [7-9].
The assay for total binding (Bt in [mol/L]) was carried out accordingly, but the unlabelled glucocorticoid was replaced by buffer solution G. To determine the total [^3H]-glucocorticoid concentration (T), 20 μL of the mixture were used for scintillation counting. […]
The Zt-values were plotted against time t and a linear regression was performed. The slope of the straight line (kAss = k1) and the coefficient of correlation r were calculated based on a minimum of four data points. […]
The Bs,t-values were plotted semi-logarithmical against time t and a linear regression was performed. The slope of the straight line (kDiss = k-1) and the coefficient of correlation r were calculated based on a minimum of six data points.
Equilibrium dissociation constant (KD) was calculated for each glucocorticoid based on association and dissociation rate constants:

[3] = Desorption of glucocorticoids from human lung tissue into human plasma; assay type: in vitro ADME; conditions: for concentration remaining in human lung tissue after desorption: after 60 min equilibration with human plasma at 37°C; for retention / tissue binding in human lung tissue (in words): in vitro
Description: Desorption of glucocorticoids to human lung tissue was determined as described earlier. Briefly, lung tissue (1.0 g) was saturated with glucocorticoids for 1 h at 37°C by shaking in 40 mL Krebs-Ringer-HEPES buffer containing 0.3 μg/mL of the respective glucocorticoid. After incubation tissue was washed with 2 mL buffer and transferred into 10.0 mL human plasma (37°C). Again, only glass lab ware was used for these experiments to exclude any non-specific binding effects of the highly lipophilic compounds to plastic material. Samples of 1.0 mL were taken at defined time points. The volume was replaced with fresh plasma at 37°C. Samples were stored at -20°C until further analysis.
as §1
(§2) The HPLC system was a Waters HPLC (Milford, MA) consisting of a 1525 binary pump, an 717plus autosampler and 2487 dual wavelength absorbance detector set at the detection wavelength of 254 nm. Data collection and integration were accomplished using Breeze™ software version 3.2. Analysis was performed on a Symmetry C18 column (150 × 4.6 mm I.D., 5 μm particle size, Waters, MA). Typically, 20 μL of sample were injected and separated at a flow rate of 1 mL/min. Gradient elution was performed using water (containing 0.2 % (v/v) acetic acid) and ACN, starting at 60:40 (v/v) water/ACN increasing linearly to 29:71 (v/v) water/ACN by 30 min. The assay was accurate and reproducible. The lower limit of quantitation was 10 ng/mL for all glucocorticoids except ciclesonide (20 ng/mL).

[4] = Adsorption of glucocorticoids to human lung tissue; assay type: in vitro ADME; conditions: 37°C; for tissue binding (concentration in human lung tissue) after adsorption: 60 min incubation, 0.3 μg/mL glucocorticoid in buffer, before incubation in plasma
Description: (§3) Lung tissue was washed in Krebs-Ringer-HEPES buffer (pH 7.4) and sliced into pieces of 1 mm^3. For each binding experiment approximately 0.5 g of lung tissue was used. Adsorption of glucocorticoids (0.3 μg/mL) to human lung tissue was determined as described earlier. Briefly, lung tissue pieces were suspended under gentle shaking for 1 h at 37°C in 20 ml Krebs-Ringer-HEPES buffer containing 0.3 μg/ml of the glucocorticoid. 2.0 mL samples were taken and stored at -20°C until analysis. The volume withdrawn was replaced with fresh buffer of 37°C. Only glass lab ware was used for these experiments to avoid any non-specific binding effects of the highly lipophilic compounds to plastic material. For control, blank samples with glucocorticoid-containing buffer, but no tissue, were incubated under the same experimental conditions (1 h at 37°C, in Krebs-Ringer-HEPES buffer) and analyzed for non-specific adsorption of the glucocorticoids to the glass tubes.
as §1, §2

[5] = Control experiment for non-specific adsorption to glass incubation vials (buffer without tissue); assay type: physicochemical; conditions: 480 min at 37°C, Krebs-Ringer-HEPES buffer; for non-specific binding to glass incubation vials: no tissue
Description: as §3, with “For control, blank samples with glucocorticoid-containing buffer, but no tissue, were incubated under the same experimental conditions (1 h at 37°C, in Krebs-Ringer-HEPES buffer) and analyzed for non-specific adsorption of the glucocorticoids to the glass tubes.” left out
as §1, §2

[6] = Binding to human nasal tissue; assay type: in vitro ADME; conditions: single experiment, tissue pooled from 3 donors; data not shown
[7] = biological target: T1, human lung glucocorticoid receptor; conditions: from previous experiments of the authors; ref [3]; cited from earlier work
[8] = system: glucocorticoid receptor (rat receptor data); design: method as in PMID 14718604; conditions: reference dexamethasone = 100, ref [16]; cited from earlier work

concentration remaining in human lung tissue after desorption [3] [ng/mg] | retention / tissue binding in human lung tissue (in words) [3] | tissue binding (concentration in human lung tissue) after adsorption [4] [ng/mg] | SMILES | non-specific binding to glass incubation vials [5] | also measured
1.21 ± 0.23 | pronounced retention | 4.18 ± 0.16 | C[C@@H]1C[C@H]2[C@@H]3C[C@H](F)C4=CC(=O)C=C[C@]4(C)[C@@]3(F)[C@@H](O)C[C@]2(C)[C@@]1(OC(=O)c1ccco1)C(=O)SCF [FF, fluticasone furoate] | no non-specific binding; also recorded: No adsorption | time to complete adsorption to human lung tissue ([4]; in vitro, data not shown): about 20 min; binding to human nasal tissue compared with FP [6]: greater binding; stability in human lung tissue (in words) ([1]; 0.3 μg/mL, 24 hours, presence and absence of dichlorvos, HPLC of supernatant): no indication of instability or chemical modification; also recorded: non-specific esterase-catalyzed hydrolysis of FF did not occur; also recorded: no degradation or metabolism
1.55 ± 0.13 | pronounced retention | 3.39 ± 0.06 | CCC(=O)O[C@]1(C(=O)SCF)[C@H](C)C[C@H]2[C@@H]3C[C@H](F)C4=CC(=O)C=C[C@]4(C)[C@@]3(F)[C@@H](O)C[C@@]21C [FP, fluticasone propionate] | no non-specific binding; also recorded: No adsorption | association rate constant k1 [7]: 21.17 ± 0.56 × 10^5 (L/[mol/min]); dissociation rate constant k-1 [7]: 10.73 ± 0.65 × 10^-4 [1/min]
0.57 ± 0.15 | Lowest tissue binding | 3.65 ± 0.15 | C[C@@H]1C[C@H]2[C@@H]3CCC4=CC(=O)C=C[C@]4(C)[C@@]3(Cl)[C@@H](O)C[C@]2(C)[C@@]1(OC(=O)c1ccco1)C(=O)CCl [MF, mometasone furoate] | did not display non-specific binding to glass | chemical stability in buffer ([5]; degradation product 9,11-epoxy MF): chemical instability

Further lines, the compound ahead of its results:

SMILES | concentration remaining in human lung tissue after desorption [3] [ng/mg] | retention / tissue binding in human lung tissue (in words) [3] | tissue binding (concentration in human lung tissue) after adsorption [4] [ng/mg] | non-specific binding to glass incubation vials [5] | also measured
CCC(=O)OCC(=O)[C@@]1(OC(=O)CC)[C@@H](C)C[C@H]2[C@@H]3CCC4=CC(=O)C=C[C@]4(C)[C@@]3(Cl)[C@@H](O)C[C@@]21C [BDP, beclomethasone-17, 21-dipropionate] |  |  |  |  | concentration in the supernatant in the absence of dichlorvos (control of enzymatic integrity) ([1]; human lung tissue, absence of dichlorvos, data not shown): rapidly decreased
C[C@@H]1C[C@H]2[C@@H]3CCC4=CC(=O)C=C[C@]4(C)[C@@]3(F)[C@@H](O)C[C@]2(C)[C@@]1(O)C(=O)CO [Dexa, dexamethasone] |  |  |  |  | association rate constant k1 ([2]; [3H]-glucocorticoid): 10.53 ± 0.35 × 10^5 (L/[mol/min]); dissociation rate constant k-1 [2]: 94.67 ± 5.43 × 10^-4 [1/min]
C[C@]12C=CC(=O)C=C1CC[C@@H]1[C@@H]2[C@@H](O)C[C@@]2(C)[C@H]1C[C@H]1O[C@@H](C3CCCCC3)O[C@]12C(=O)CO [des-Cicle, desisobutyryl-ciclesonide] |  |  |  |  | RRA (relative receptor affinity) [8]: 1212
